Molecular target: recombinant Human Phosphodiesterase B2 (PDE4B2) (Homo sapiens, UniProt Q07343)
Assay: Human Phosphodiesterase B2 Radiometric Assay (yttrium silicate SPA beads, [3H]cyclic AMP)
Type: biochemical
Settings: recombinant human PDE4B2, radiometric SPA assay, 8 nM [3H]cyclic AMP; read-out: PDE4B2 pIC50 (converted)
Method in brief: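 Compounds were preincubated 30 min at 30 °C with 0.1 mg/mL PDE4B2 in 50 mM HEPES pH 7.5, 8.3 mM MgCl2, 1.7 mM EGTA, 0.01% Brij 35. Then 8 nM [3H]cAMP was added for 20 min, stopped with yttrium silicate SPA beads plus 18 mM ZnSO4 capturing product 5′AMP; pIC50 by curve fitting.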

Chain of recombinant Human Phosphodiesterase B2 (PDE4B2) (Q07343 1-564 isoform Q07343-2): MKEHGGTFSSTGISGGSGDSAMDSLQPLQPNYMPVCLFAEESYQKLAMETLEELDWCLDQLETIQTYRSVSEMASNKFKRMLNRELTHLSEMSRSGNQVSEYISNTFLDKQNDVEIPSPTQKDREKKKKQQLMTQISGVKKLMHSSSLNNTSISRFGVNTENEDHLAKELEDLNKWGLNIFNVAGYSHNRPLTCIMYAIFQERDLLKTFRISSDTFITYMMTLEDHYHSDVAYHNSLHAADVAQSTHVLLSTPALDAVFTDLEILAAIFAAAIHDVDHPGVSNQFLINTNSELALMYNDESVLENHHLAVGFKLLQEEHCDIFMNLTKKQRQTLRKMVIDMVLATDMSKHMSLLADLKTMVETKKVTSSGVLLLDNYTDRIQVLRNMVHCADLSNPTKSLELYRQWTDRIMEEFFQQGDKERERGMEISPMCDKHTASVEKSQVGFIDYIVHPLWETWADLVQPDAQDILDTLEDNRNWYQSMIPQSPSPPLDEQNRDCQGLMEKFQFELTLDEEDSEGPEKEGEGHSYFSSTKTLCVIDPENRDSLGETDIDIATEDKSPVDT

Which IC50 does the source give for `CCCCN(C)Cc1ccc(-c2cccc(-n3c(=O)n([C@H]4CC[C@@H](NC(=O)c5cn6c(n5)CCCC6)CC4)c(=O)c4cc(F)cnc43)c2)cc1` [Example 132, N-{cis-4-[1-(4′-{[butyl(methyl)amino]methyl}biphenyl-3-yl)-6-fluoro-2,4-dioxo-1,4-dihydropyrido[2,3-d]pyrimidin-3(2H)-yl]cyclohexyl}-5,6,7,8-tetrahydroimidazo[1,2-a]pyridine-2-carboxamide] here?
The IC50 was 0.0251 nM.

How did the IC50 turn out when `CC(C)N1CCN(Cc2ccc(-c3cccc(-n4c(=O)n([C@H]5CC[C@@H](NCc6cnn(C)c6-c6ccccc6)CC5)c(=O)c5cc(F)cnc54)c3)cc2)CC1` [Example 264, 6-fluoro-1-{4′-[(4-isopropyl-piperazin-1-yl)methyl]biphenyl-3-yl}-3-(cis-4-{[(1-methyl-5-phenyl-1H-pyrazol-4-yl)methyl]amino}cyclohexyl)pyrido[2,3-d] pyrimidine-2,4(1H,3H)-dione] was run?
The IC50 was 2.51 nM.

`O=c1c2cc(F)cnc2n(-c2cccc(-c3ccccc3)c2)c(=O)n1[C@H]1CC[C@@H](NCCO)CC1` [Example 86, 1-biphenyl-3-yl-6-fluoro-3-{cis-4-[(2-hydroxyethyl)amino]cyclohexyl}pyrido[2,3-d]pyrimidine-2,4(1H,3H)-dione] was tested. Which IC50 did it give?
Its IC50 is 31.6 nM.

For `CC(C)N1CCN(Cc2ccc(-c3cccc(-n4c(=O)n([C@H]5CC[C@@H](NC(=O)CC6CCOCC6)CC5)c(=O)c5cc(F)cnc54)c3)cc2)CC1` [Example 234, N-{cis-4-[6-fluoro-1-{4′-[(4-isopropylpiperazin-1-yl)methyl]biphenyl-3-yl}-2,4-dioxo-1,4-di-hydropyrido[2,3-d]pyrimidin-3(2H)-yl]cyclohexyl}-2-(tetrahydro-2H-pyran-4-yl)acetamide], which IC50 is on record?
The IC50 was 0.1 nM.

`CN(C)CCOc1ccc(-c2cccc(-n3c(=O)n([C@H]4CC[C@@H](NC(=O)c5cn6cc(F)ccc6n5)CC4)c(=O)c4cc(F)cnc43)c2)cc1` [Example 78, N-{cis-4-[1-{4′-[2-(dimethylamino)ethoxy]biphenyl-3-yl}-6-fluoro-2,4-dioxo-1,4-dihydropyrido[2,3-d]pyrimidin-3(2H)-yl]cyclohexyl}-6-fluoroimidazo[1,2-a]pyridine-2-carboxamide] was tested. Which IC50 did it give?
The IC50 was 0.0398 nM.

Which IC50 does the source give for `Cc1cc(C)n2nc(C(=O)N[C@H]3CC[C@@H](n4c(=O)c5cc(F)cnc5n(-c5cccc(-c6ccc(CN7CCC(N8CCCCC8)CC7)cc6)c5)c4=O)CC3)cc2n1` [Example 362, N-{cis-4-[1-[4′-(1,4′-bipiperidin-1′-ylmethyl)biphenyl-3-yl]-6-fluoro-2,4-dioxo-1,4-dihydropyrido[2,3-d]pyrimidin-3(2H)-yl]cyclohexyl}-5,7-dimethylpyrazolo[1,5-a]pyrimidine-2-carboxamide] here?
The IC50 was 0.0501 nM.

For `O=C(N[C@H]1CC[C@@H](n2c(=O)c3cc(F)cnc3n(-c3cccc(-c4ccc(CN5CCCCC5)cc4)c3)c2=O)CC1)c1cn2c(n1)CCCC2` [Example 119, N-{cis-4-[6-fluoro-2,4-dioxo-1-[4′-(piperidin-1-ylmethyl)biphenyl-3-yl]-1,4-dihydropyrido[2,3-d]pyrimidin-3(2H)-yl]cyclohexyl}-5,6,7,8-tetrahydroimidazo[1,2-a]pyridine-2-carboxamide], which IC50 is on record?
The IC50 was 0.316 nM.

With `CNCCNCc1ccc(-c2cccc(-n3c(=O)n([C@H]4CC[C@@H](NC(=O)c5cn6cc(F)ccc6n5)CC4)c(=O)c4cc(F)cnc43)c2)cc1` [Example 64, 6-fluoro-N-{cis-4-[6-fluoro-1-[4′-({[2-(methylamino)ethyl]amino}methyl)biphenyl-3-yl]-2,4-dioxo-1,4-dihydropyrido[2,3-a]pyrimidin-3(2H)-yl]cyclohexyl}imidazo[1,2-a]pyridine-2-carboxamide] as the compound, how does the IC50 read?
Its IC50 is 0.0794 nM.

`COc1ccc(CN[C@H]2CC[C@@H](n3c(=O)c4cc(F)cnc4n(-c4cccc(-c5ccc(CN6CCCOCC6)cc5)c4)c3=O)CC2)cc1Cl` [Example 258, 3-{cis-4-[(3-Chloro-4-methoxybenzyl)amino]cyclohexyl}-6-fluoro-1-[4′-(1,4-oxazepan-4-ylmethyl)biphenyl-3-yl]pyrido[2,3-d]pyrimidine-2,4(1H,3H)-dione] was tested. Which IC50 did it give?
Its IC50 is 2 nM.

For `Cc1cnc(C(=O)N[C@H]2CC[C@@H](n3c(=O)c4cc(F)cnc4n(-c4cccc(-c5ccc(CN6CCC(N7CCCCC7)CC6)cc5)c4)c3=O)CC2)cn1` [Example 297, N-{cis-4-[1-[4′-(1,4′-bipiperidin-1′-ylmethyl)biphenyl-3-yl]-6-fluoro-2,4-dioxo-1,4-dihydropyrido[2,3-d]pyrimidin-3(2H)-yl]cyclohexyl}-5-methylpyrazine-2-carboxamide], which IC50 is on record?
Its IC50 is 0.0316 nM.

How did the IC50 turn out when `Cc1ccc(CN[C@H]2CC[C@@H](n3c(=O)c4cc(F)cnc4n(-c4cccc(-c5ccc(O)cc5CN5CCOCC5)c4)c3=O)CC2)cc1` [Example 278, 6-fluoro-1-[4′-hydroxy-2′-(morpholin-4-ylmethyl)biphenyl-3-yl]-3-{cis-4-[(4-methylbenzyl)amino]cyclohexyl}pyrido[2,3-d] pyrimidine-2,4(1H,3H)-dione] was run?
The IC50 was 0.794 nM.

Which IC50 does the source give for `O=c1c2cc(F)cnc2n(-c2cccc(-c3ccc(O)cc3CN3CCOCC3)c2)c(=O)n1[C@H]1CC[C@@H](NCC2CC2)CC1` [Example 249, 3-{cis-4-[(Cyclopropylmethyl)amino]cyclohexyl}-6-fluoro-1-[4′-hydroxy-2′-(morpholin-4-ylmethyl)biphenyl-3-yl]pyrido[2,3-d]pyrimidine-2,4(1H,3H)-dione] here?
The IC50 was 6.31 nM.

For `Cc1c(CN[C@H]2CC[C@@H](n3c(=O)c4cc(F)cnc4n(-c4cccc(-c5ccc(CN6CCN(C(C)C)CC6)cc5)c4)c3=O)CC2)ncn1Cc1ccccc1` [Example 263, 3-(cis-4-{[(1-benzyl-5-methyl-1H-imidazol-4-yl)methyl]amino}cyclohexyl)-6-fluoro-1-{4′-[(4-isopropylpiperazin-1-yl)methyl]biphenyl-3-yl}pyrido[2,3-d] pyrimidine-2,4(1H,3H)-dione], which IC50 is on record?
Its IC50 is 1.58 nM.

Which IC50 does the source give for `CN(C)Cc1cc(O)ccc1-c1cccc(-n2c(=O)n([C@H]3CC[C@@H](NCc4cn5cc(F)ccc5n4)CC3)c(=O)c3cc(F)cnc32)c1` [Example 277, 1-{2′-[(dimethylamino)methyl]-4′-hydroxybiphenyl-3-yl}-6-fluoro-3-(cis-4-{[(6-fluoroimidazo[1,2-a]pyridin-2-yl)methyl]amino}cyclohexyl)pyrido[2,3-d]pyrimidine-2,4(1H,3H)-dione] here?
The IC50 was 0.794 nM.

With `CN(C)C(=O)CN1CCN(Cc2ccc(-c3cccc(-n4c(=O)n([C@H]5CC[C@@H](NC(=O)c6cn7c(n6)CCCC7)CC5)c(=O)c5cc(F)cnc54)c3)cc2)CC1` [Example 137, N-{cis-4-[1-[4′-({4-[2-(dimethylamino)-2-oxoethyl]piperazin-1-yl}methyl)biphenyl-3-yl]-6-fluoro-2,4-dioxo-1,4-dihydropyrido[2,3-d]pyrimidin-3(2H)-yl]cyclohexyl}-5,6,7,8-tetrahydroimidazo[1,2-a]pyridine-2-carboxamide] as the compound, how does the IC50 read?
Its IC50 is 0.0126 nM.

`O=c1c2cc(F)cnc2n(-c2cccc(-c3ccc(O)cc3CN3CCOCC3)c2)c(=O)n1[C@H]1CC[C@@H](NCc2cc3ccccc3o2)CC1` [Example 279, 3-{cis-4-[(1-benzofuran-2-ylmethyl)amino]cyclohexyl}-6-fluoro-1-[4′-hydroxy-2′-(morpholin-4-ylmethyl)biphenyl-3-yl]pyrido[2,3-d]pyrimidine-2,4(1H,3H)-dione] was tested. Which IC50 did it give?
The IC50 was 0.0398 nM.

How did the IC50 turn out when `CN(Cc1cn2cc(F)ccc2n1)[C@H]1CC[C@@H](n2c(=O)c3cc(F)cnc3n(-c3cccc(-c4ccc(O)cc4CN4CCOCC4)c3)c2=O)CC1` [Example 286, 6-fluoro-3-{cis-4-[[(6-fluoroimidazo[1,2-a]pyridin-2-yl)methyl](methyl)amino]cyclohexyl}-1-[4′-hydroxy-2′-(morpholin-4-ylmethyl)biphenyl-3-yl]pyrido[2,3-d]pyrimidine-2,4(1H,3H)-dione] was run?
Its IC50 is 2 nM.

How did the IC50 turn out when `O=C1CN(Cc2cc(O)ccc2-c2cccc(-n3c(=O)n([C@H]4CC[C@@H](NCc5cn6cc(F)ccc6n5)CC4)c(=O)c4cc(F)cnc43)c2)CCN1` [Example 377, 6-fluoro-3-(cis-4-{[(6-fluoroimidazo[1,2-a]pyridin-2-yl)methyl]amino}cyclohexyl)-1-{4′-hydroxy-2′-[(3-oxopiperazin-1-yl)methyl]biphenyl-3-yl}pyrido[2,3-d]pyrimidine-2,4(1H,3H)-dione] was run?
The IC50 was 0.0631 nM.

With `Cc1c(CN[C@H]2CC[C@@H](n3c(=O)c4cc(F)cnc4n(-c4cccc(-c5ccc(O)cc5CN5CCOCC5)c4)c3=O)CC2)nc2ccccn12` [Example 336, 6-fluoro-1-[4′-hydroxy-2′-(morpholin-4-ylmethyl)biphenyl-3-yl]-3-(cis-4-{[(3-methylimidazo[1,2-a]pyridin-2-yl)methyl]amino}cyclohexyl)pyrido[2,3-d]pyrimidine-2,4(1H,3H)-dione] as the compound, how does the IC50 read?
The IC50 was 0.0316 nM.

Which IC50 does the source give for `Cc1cc(C(=O)N[C@H]2CC[C@@H](n3c(=O)c4cc(F)cnc4n(-c4cccc(-c5ccc(CNCCC(C)C)cc5)c4)c3=O)CC2)nn1C` [Example 115, N-{cis-4-[6-fluoro-1-(4′-{[(3-methylbutyl)amino]methyl}biphenyl-3-yl)-2,4-dioxo-1,4-dihydropyrido[2,3-d]-pyrimidin-3(2H)-yl]cyclohexyl}-1,5-dimethyl-1H-pyrazole-3-carboxamide] here?
Its IC50 is 0.0398 nM.

For `CN(C)C1(C(=O)N[C@H]2CC[C@@H](n3c(=O)c4cc(F)cnc4n(-c4cccc(-c5ccc(CN6CCN(C7CCCC7)CC6)cc5)c4)c3=O)CC2)CC1` [Example 210, N-{cis-4-[1-{4′-[(4-cyclopentylpiperazin-1-yl)methyl]biphenyl-3-yl}-6-fluoro-2,4-dioxo-1,4-dihydropyrido[2,3-d]pyrimidin-3(2H)-yl]cyclohexyl}-1-(dimethylamino)cyclopropane-carboxamide], which IC50 is on record?
Its IC50 is 0.02 nM.

From patent publication US20100204203A1, “Chemical Compounds 637: Pyridopyrimidinediones as PDE4 Inhibitors” (priority 2007, published 2010)
